Measured values reported in ChEMBL document CHEMBL1201862, “PubChem BioAssay data set” (2004).
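A five-concentration, 48-hour dose response in 96-well plates underlies each endpoint, interpolated linearly between surrounding concentrations. Here, GI50 denotes the concentration required for 50% inhibition of growth.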 The source made the active and inactive calls. Rule as the data show it: active = GI50 up to about 1.1 µM and inactive = higher.

Assays:
Assay in all cases: inhibition of tumour cell growth, NCI panel, 48 h
SK-MEL-5 = system: SK-MEL-5
NCI-H226 = system: NCI-H226
M14 = system: M14
KM12 = system: KM12
MOLT-4 = system: MOLT-4
UACC-257 = system: UACC-257
CCRF-CEM = system: CCRF-CEM
SN12C = system: SN12C
UO-31 = system: UO-31
NCI-H23 = system: NCI-H23
UACC-62 = system: UACC-62
OVCAR-8 = system: OVCAR-8
HT-29 = system: HT-29
NCI-H522 = system: NCI-H522
SF-539 = system: SF-539
EKVX = system: EKVX
MDA-N = system: MDA-N
DU-145 = system: DU-145
SF-268 = system: SF-268
RXF 393 = system: RXF 393
HL-60 = system: HL-60
A498 = system: A498
A549 = system: A549
COLO 205 = system: COLO 205
SK-MEL-28 = system: SK-MEL-28
OVCAR-4 = system: OVCAR-4
K562 = system: K562
OVCAR-3 = system: OVCAR-3
MDA-MB-231 = system: MDA-MB-231
ACHN = system: ACHN
MDA-MB-435 = system: MDA-MB-435
NCI-H460 = system: NCI-H460
MCF7 = system: MCF7
SNB-75 = system: SNB-75
NCI/ADR-RES = system: NCI/ADR-RES
SF-295 = system: SF-295
SNB-19 = system: SNB-19
BT-549 = system: BT-549
Hs-578T = system: Hs-578T
U-251 = system: U-251
HCC 2998 = system: HCC 2998
HCT-116 = system: HCT-116
SW-620 = system: SW-620
LOX IMVI = system: LOX IMVI
IGROV-1 = system: IGROV-1
786-0 = system: 786-0
OVCAR-5 = system: OVCAR-5
Malme-3M = system: Malme-3M
T47D = system: T47D
SR = system: SR
HOP-62 = system: HOP-62
CAKI-1 = system: CAKI-1
HOP-92 = system: HOP-92
TK-10 = system: TK-10
PC-3 = system: PC-3
SK-MEL-2 = system: SK-MEL-2
HCT-15 = system: HCT-15
SK-OV-3 = system: SK-OV-3
RPMI-8226 = system: RPMI-8226

Q: For O=C(CCCN1CCC2(CC1)C(=O)NC(=O)N2c1ccccc1)c1ccc(F)cc1, which GI50 (SK-MEL-5) is on record?
A: > 100 µM (inactive)

Q: And the GI50 (NCI-H226)?
A: > 100 µM (inactive)

Q: And the GI50 (M14)?
A: > 100 µM (inactive)

Q: What about the GI50 (KM12) of the same compound?
A: > 100 µM (inactive)

Q: And the GI50 (MOLT-4)?
A: > 100 µM (inactive)

Q: And the GI50 (UACC-257)?
A: > 100 µM (inactive)

Q: And the GI50 (CCRF-CEM)?
A: > 100 µM (inactive)

Q: What about the GI50 (SN12C) of the same compound?
A: > 100 µM (inactive)

Q: And the GI50 (UO-31)?
A: > 100 µM (inactive)

Q: What about the GI50 (NCI-H23) of the same compound?
A: > 100 µM (inactive)

Q: And the GI50 (UACC-62)?
A: > 100 µM (inactive)

Q: And the GI50 (OVCAR-8)?
A: > 100 µM (inactive)

Q: What about the GI50 (HT-29) of the same compound?
A: 66.2 µM (inactive)

Q: What about the GI50 (NCI-H522) of the same compound?
A: 8.73 µM (inactive)

Q: What about the GI50 (SF-539) of the same compound?
A: > 100 µM (inactive)

Q: And the GI50 (EKVX)?
A: > 100 µM (inactive)

Q: And the GI50 (MDA-N)?
A: > 100 µM (inactive)

Q: And the GI50 (DU-145)?
A: > 100 µM (inactive)

Q: And the GI50 (SF-268)?
A: > 100 µM (inactive)

Q: What about the GI50 (RXF 393) of the same compound?
A: > 100 µM (inactive)

Q: What about the GI50 (HL-60) of the same compound?
A: > 100 µM (inactive)

Q: What about the GI50 (A498) of the same compound?
A: > 100 µM (inactive)

Q: What about the GI50 (A549) of the same compound?
A: > 100 µM (inactive)

Q: What about the GI50 (COLO 205) of the same compound?
A: > 100 µM (inactive)

Q: And the GI50 (SK-MEL-28)?
A: > 100 µM (inactive)

Q: What about the GI50 (OVCAR-4) of the same compound?
A: > 100 µM (inactive)

Q: And the GI50 (K562)?
A: > 10 µM (inactive)

Q: What about the GI50 (OVCAR-3) of the same compound?
A: > 100 µM (inactive)

Q: And the GI50 (MDA-MB-231)?
A: > 100 µM (inactive)

Q: And the GI50 (ACHN)?
A: > 100 µM (inactive)

Q: What about the GI50 (MDA-MB-435) of the same compound?
A: > 100 µM (inactive)

Q: What about the GI50 (NCI-H460) of the same compound?
A: > 100 µM (inactive)

Q: What about the GI50 (MCF7) of the same compound?
A: > 100 µM (inactive)

Q: And the GI50 (SNB-75)?
A: > 100 µM (inactive)

Q: And the GI50 (NCI/ADR-RES)?
A: > 100 µM (inactive)

Q: And the GI50 (SF-295)?
A: > 100 µM (inactive)

Q: And the GI50 (SNB-19)?
A: > 100 µM (inactive)

Q: What about the GI50 (BT-549) of the same compound?
A: > 100 µM (inactive)

Q: And the GI50 (Hs-578T)?
A: > 100 µM (inactive)

Q: And the GI50 (U-251)?
A: > 100 µM (inactive)

Q: And the GI50 (HCC 2998)?
A: > 100 µM (inactive)

Q: And the GI50 (HCT-116)?
A: > 100 µM (inactive)

Q: What about the GI50 (SW-620) of the same compound?
A: > 100 µM (inactive)

Q: And the GI50 (LOX IMVI)?
A: > 100 µM (inactive)

Q: What about the GI50 (IGROV-1) of the same compound?
A: > 100 µM (inactive)

Q: What about the GI50 (786-0) of the same compound?
A: > 100 µM (inactive)

Q: And the GI50 (OVCAR-5)?
A: > 100 µM (inactive)

Q: What about the GI50 (Malme-3M) of the same compound?
A: > 100 µM (inactive)

Q: What about the GI50 (T47D) of the same compound?
A: > 100 µM (inactive)

Q: And the GI50 (SR)?
A: > 100 µM (inactive)

Q: And the GI50 (HOP-62)?
A: > 100 µM (inactive)

Q: What about the GI50 (CAKI-1) of the same compound?
A: > 100 µM (inactive)

Q: And the GI50 (HOP-92)?
A: > 100 µM (inactive)

Q: And the GI50 (TK-10)?
A: > 100 µM (inactive)

Q: What about the GI50 (PC-3) of the same compound?
A: > 100 µM (inactive)

Q: What about the GI50 (SK-MEL-2) of the same compound?
A: > 100 µM (inactive)

Q: And the GI50 (HCT-15)?
A: > 100 µM

Q: What about the GI50 (SK-OV-3) of the same compound?
A: > 100 µM (inactive)

Q: What about the GI50 (RPMI-8226) of the same compound?
A: > 100 µM (inactive)

Q: COc1ccc(C(C)NNC(=O)c2ccncc2)c(OC)c1 (stereo not drawn) was tested. Which GI50 (SK-MEL-5) did it give?
A: > 100 µM (inactive)

Q: What about the GI50 (NCI-H226) of the same compound?
A: > 100 µM (inactive)

Q: What about the GI50 (M14) of the same compound?
A: > 100 µM (inactive)

Q: And the GI50 (KM12)?
A: > 100 µM (inactive)

Q: What about the GI50 (MOLT-4) of the same compound?
A: > 100 µM (inactive)

Q: What about the GI50 (UACC-257) of the same compound?
A: > 100 µM (inactive)

Q: And the GI50 (CCRF-CEM)?
A: > 100 µM (inactive)

Q: What about the GI50 (SN12C) of the same compound?
A: > 100 µM (inactive)

Q: And the GI50 (UO-31)?
A: > 100 µM (inactive)

Q: What about the GI50 (NCI-H23) of the same compound?
A: > 100 µM (inactive)

Q: And the GI50 (UACC-62)?
A: > 100 µM (inactive)

Q: And the GI50 (OVCAR-8)?
A: > 100 µM (inactive)

Q: And the GI50 (HT-29)?
A: > 100 µM (inactive)

Q: And the GI50 (NCI-H522)?
A: > 100 µM (inactive)

Q: And the GI50 (SF-539)?
A: > 100 µM (inactive)

Q: And the GI50 (EKVX)?
A: > 100 µM (inactive)

Q: And the GI50 (MDA-N)?
A: > 100 µM (inactive)

Q: And the GI50 (DU-145)?
A: > 100 µM (inactive)

Q: What about the GI50 (SF-268) of the same compound?
A: > 100 µM (inactive)

Q: What about the GI50 (RXF 393) of the same compound?
A: > 100 µM (inactive)

Q: What about the GI50 (HL-60) of the same compound?
A: > 100 µM (inactive)

Q: And the GI50 (A498)?
A: > 100 µM (inactive)

Q: What about the GI50 (A549) of the same compound?
A: > 100 µM (inactive)

Q: What about the GI50 (COLO 205) of the same compound?
A: > 100 µM (inactive)

Q: What about the GI50 (SK-MEL-28) of the same compound?
A: > 100 µM (inactive)

Q: And the GI50 (OVCAR-4)?
A: > 100 µM (inactive)

Q: What about the GI50 (K562) of the same compound?
A: 93.1 µM (inactive)

Q: What about the GI50 (OVCAR-3) of the same compound?
A: > 100 µM (inactive)

Q: And the GI50 (MDA-MB-231)?
A: > 100 µM (inactive)

Q: And the GI50 (ACHN)?
A: > 100 µM (inactive)

Q: What about the GI50 (MDA-MB-435) of the same compound?
A: > 100 µM (inactive)

Q: What about the GI50 (NCI-H460) of the same compound?
A: > 100 µM (inactive)

Q: What about the GI50 (MCF7) of the same compound?
A: > 100 µM (inactive)

Q: What about the GI50 (SNB-75) of the same compound?
A: > 100 µM (inactive)

Q: What about the GI50 (NCI/ADR-RES) of the same compound?
A: > 100 µM (inactive)

Q: And the GI50 (SF-295)?
A: > 100 µM (inactive)

Q: What about the GI50 (SNB-19) of the same compound?
A: > 100 µM (inactive)

Q: What about the GI50 (BT-549) of the same compound?
A: > 100 µM (inactive)

Q: And the GI50 (Hs-578T)?
A: > 100 µM (inactive)

Q: What about the GI50 (U-251) of the same compound?
A: > 100 µM (inactive)

Q: And the GI50 (HCC 2998)?
A: > 100 µM (inactive)

Q: What about the GI50 (HCT-116) of the same compound?
A: > 100 µM (inactive)

Q: What about the GI50 (SW-620) of the same compound?
A: > 100 µM (inactive)

Q: And the GI50 (LOX IMVI)?
A: > 100 µM (inactive)

Q: What about the GI50 (IGROV-1) of the same compound?
A: > 100 µM (inactive)

Q: And the GI50 (786-0)?
A: > 100 µM (inactive)

Q: What about the GI50 (OVCAR-5) of the same compound?
A: > 100 µM (inactive)

Q: What about the GI50 (Malme-3M) of the same compound?
A: > 100 µM (inactive)

Q: And the GI50 (T47D)?
A: > 100 µM (inactive)

Q: What about the GI50 (SR) of the same compound?
A: > 100 µM (inactive)

Q: And the GI50 (HOP-62)?
A: > 100 µM (inactive)

Q: What about the GI50 (CAKI-1) of the same compound?
A: > 100 µM (inactive)

Q: What about the GI50 (HOP-92) of the same compound?
A: > 100 µM (inactive)

Q: What about the GI50 (TK-10) of the same compound?
A: > 100 µM (inactive)

Q: And the GI50 (PC-3)?
A: > 100 µM (inactive)

Q: And the GI50 (SK-MEL-2)?
A: > 100 µM (inactive)

Q: And the GI50 (HCT-15)?
A: > 100 µM

Q: And the GI50 (SK-OV-3)?
A: > 100 µM (inactive)

Q: And the GI50 (RPMI-8226)?
A: > 100 µM (inactive)
